What all share (test): DTP human tumour cell line panel, 48 h
The subject of test [1] is CCRF-CEM leukemia.
Test [2] deals with SK-MEL-2 melanoma.
Test [3] concerns 786-0 renal.
Test [4] has as its system MALME-3M melanoma.
Test [5] concerns HOP-62 NSCLC.
Test [6] has as its system NCI-H460 lung.
The subject of test [7] is BT-549 breast.
For test [8], the system named is NCI-H226 lung.
Test [9] has as its system NCI-H23 lung.
Test [10] concerns HT29 colon.

By TGI is commonly meant the concentration at which net growth stops. Low readings indicate more potent growth arrest, high ones less potent growth arrest.

Each structure is given as a SMILES string.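 Five compound concentrations were applied to cells in 96-well plates for 48 hours; endpoints were derived by simple linear interpolation of the resulting dose-response curve. Definition used: TGI = concentration required for complete inhibition of growth.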 Where only a bound is given, the exact number is not on record here.

Take `O=C(NN1C(=O)C=CC1=O)c1ccccc1Nc1ccccc1C(=O)NN1C(=O)C=CC1=O`: the TGI in [1], in [2], in test [3], in test [4], in test [5] and in test [6] was greater than 100 µM throughout. For the same compound, the TGI in [7], in test [8], in [9] and in [10] was greater than 100 µM each time.
As to `N#Cc1nc(/C=C/c2ccccc2)oc1N`, the TGI in test [1], in test [2], in test [3], in test [4], in [5] and in test [6] was greater than 100 µM each time. For the same compound, the TGI in test [7], in test [8], in test [9] and in test [10] was greater than 100 µM in each case.
For `C#CCOC(=O)C(N)CCCN=C(N)N` (stereo not given), the TGI in test [1], in [2], in test [3], in [4], in [5] and in test [6] was greater than 100 µM each time. Further, the TGI in [7], in [8], in [9] and in test [10] was greater than 100 µM each time.
`COc1ccc(/C=C2\CN(C)Cc3c2[nH]c(=O)c(C#N)c3-c2ccc(OC)cc2)cc1`: the concentration for total growth inhibition (TGI) in test [1] is greater than 100 µM; in test [2] it was greater than 100 µM; in [3], 51.1 µM; in [4] it was greater than 100 µM; in test [5], greater than 100 µM; in test [6], greater than 100 µM. Further, the total growth inhibition concentration (TGI) in [7], in test [8], in test [9] and in [10] was greater than 100 µM each time.
Consider `Nc1nc2cc(CNc3ccc(C(=O)NC(CCC(=O)O)C(=O)O)cc3)ccc2nc1-c1ccccc1` (stereo not given), for which the TGI in test [1], in [2], in test [3], in test [4], in test [5] and in test [6] was greater than 10 µM in each case. Moreover, the concentration for total growth inhibition (TGI) in test [7], in [8], in [9] and in test [10] was greater than 10 µM throughout.
As to `COc1cc2c(cc1Cl)n([O-])c(C#N)c(N1CCN(c3ccc([N+](=O)[O-])cc3)CC1)[n+]2=O`, the TGI in test [1] is greater than 100 µM; in test [2], greater than 100 µM; in test [3], greater than 100 µM; in [4], 99.6 µM; in [5], greater than 62.8 µM; in test [6], greater than 100 µM. The TGI was greater than 100 µM in test [7], greater than 100 µM in test [8], 91.3 µM in [9] and greater than 100 µM in test [10].
On to `CC(C)C1=CC23CCC4C(C)(C(=O)O)CCCC4(C)C2CC1C(C(=O)O)C3C(=O)O` (stereo not given), for which the TGI in test [1], in test [2], in test [3], in test [4], in [5] and in test [6] was greater than 100 µM in each case. In addition, the TGI in test [7], in test [8], in test [9] and in test [10] was greater than 100 µM throughout.
As for `COC(=O)c1ccccc1CC(Cc1ccccc1)C(=O)OC` (stereo not given), the concentration for total growth inhibition (TGI) in [1], in [2], in test [3], in test [4], in test [5] and in test [6] was greater than 100 µM each time. Also, the TGI in test [7], in test [8], in [9] and in test [10] was greater than 100 µM throughout.
On to `Cc1nnc2sc(N/N=C/c3ccccc3)nn12`, for which the concentration for total growth inhibition (TGI) in test [1], in test [2], in [3], in test [4], in test [5] and in [6] was greater than 100 µM in each case. Also, the TGI in test [7], in test [8], in [9] and in test [10] was greater than 100 µM each time.
With `CCCCCCCCC/C=C1\CC(CO)(COC(=O)c2ccccc2)OC1=O` (stereo not given), the concentration for total growth inhibition (TGI) in test [1] is greater than 100 µM; in test [2] it was greater than 100 µM; in test [3] it was 39.8 µM; in test [4], 39.5 µM; in test [5], 29.8 µM; in test [6], 47.6 µM. Further, the concentration for total growth inhibition (TGI) in test [7] is 52.1 µM; in test [8] it was 57.9 µM; in test [9], 41.9 µM; in [10], 35.3 µM.
With `Cc1n(CC(=O)c2ccccc2)nc2sc(N)n[n+]12`, the TGI in test [1], in test [2], in [3], in [4], in test [5] and in test [6] was greater than 100 µM each time. In addition, the concentration for total growth inhibition (TGI) in test [7], in test [8], in test [9] and in test [10] was greater than 100 µM in each case.
On to `O=C(CCCn1ccnc1[N+](=O)[O-])NCCn1ccnc1[N+](=O)[O-]`, for which the TGI in test [1], in test [2], in test [3], in test [4], in test [5] and in [6] was greater than 100 µM in each case. The TGI in test [7], in [8], in [9] and in [10] was greater than 100 µM throughout.
Turning to `CN(C)CCn1c(=O)c2ccc3c4c(nn3CCN(C)C)c3ccccc3n(c1=O)c24`, the concentration for total growth inhibition (TGI) worked out at 10.9 µM in test [1]; 1.17 µM in [2]; 0.961 µM in test [3]; 2.13 µM in test [4]; 1.88 µM in test [5]; 0.417 µM in test [6]. Also, the concentration for total growth inhibition (TGI) in [7] came out at 5.5 µM; in test [8] it was 2.92 µM; in test [9], 1.42 µM; in test [10], 2.23 µM.
Regarding `Cc1cc(N=C2C=C(Nc3cc(C)on3)C(=O)c3ccccc32)no1`, the TGI is greater than 100 µM in test [1]; 72.5 µM in test [2]; 98.8 µM in test [3]; 53 µM in test [4]; greater than 100 µM in test [5]; greater than 100 µM in [6]. In addition, the TGI in test [7] was 74.9 µM; in test [8] it was greater than 100 µM; in test [9], 26 µM; in test [10], greater than 100 µM.
`CCOC(=O)C(C)c1nc2cc(N3CCN(C)CC3)c(F)cc2[nH]c1=O` (stereo not given): the concentration for total growth inhibition (TGI) in test [1], in [2], in test [3], in test [4], in [5] and in test [6] was greater than 100 µM in each case. In addition, the TGI in test [7], in [8], in test [9] and in test [10] was greater than 100 µM each time.
Regarding `C/C(N=Nc1nc2ccccc2o1)=C1/C=CC=CN1O`, the total growth inhibition concentration (TGI) is greater than 100 µM in test [1]; greater than 100 µM in test [2]; greater than 100 µM in test [3]; 12.2 µM in test [4]; greater than 100 µM in test [5]; greater than 100 µM in test [6]. Also, the TGI in [7], in test [8], in test [9] and in [10] was greater than 100 µM each time.
Take `Cc1c(F)c(N)c2c(=O)cc(-c3ccc(NC(=O)C(N)CCCN=C(N)N)c(F)c3)oc2c1F` (stereo not given): the total growth inhibition concentration (TGI) was greater than 100 µM in [1]; 60 µM in [2]; greater than 100 µM in [3]; 62.5 µM in test [4]; 99.6 µM in test [5]; greater than 64.9 µM in test [6]. Besides, the TGI was 51.5 µM in test [7], 0.758 µM in test [8], greater than 73.8 µM in [9] and greater than 100 µM in test [10].
Turning to `CS(=O)(=O)O.[Ag]`, the TGI in test [1] was found to be 6.64 µM; in test [2] it was 30.2 µM; in test [3], 29.9 µM; in test [4], 3.79 µM; in test [5] it was 65.9 µM; in test [6], 49.5 µM. In addition, the TGI in test [7] was 38 µM; in test [8], 51.4 µM; in test [9] it was 46.2 µM; in test [10], 39.3 µM.
For the compound `COc1ccc2c(c1)-c1nn(CCN(C)C)c3ccc(C(=O)NCCCN(C)CCCNC(=O)c4ccc5c6c(nn5CCN(C)C)-c5cc(OC)ccc5Nc46)c(c13)N2`, the TGI in [1] was found to be 0.141 µM; in test [2], 0.25 µM; in [3], 1.9 µM; in test [4], 0.762 µM; in test [5] it was 1.32 µM; in test [6], 1.11 µM. Also, the TGI in test [7] was 0.948 µM; in test [8], 0.541 µM; in [9] it was 0.384 µM; in [10], 1.74 µM.
Regarding `CC(C)C(C/C=C1\CC(CO)(COC(=O)CC(C(C)C)C(C)C)OC1=O)C(C)C` (stereo not given), the TGI came out at 36.2 µM in test [1]; 38.2 µM in test [2]; 21.1 µM in [3]; 14.5 µM in test [4]; 20.5 µM in test [5]; 21.7 µM in [6]. Besides, the TGI in test [7] came out at 27.8 µM; in [8] it was 24.4 µM; in [9], 29 µM; in test [10], 32.6 µM.
In the case of `CN(c1ccccc1Cl)S(=O)(=O)c1ccccc1[N+](=O)[O-]`, the TGI in test [1], in test [2], in test [3], in [4], in [5] and in [6] was greater than 100 µM each time. Further, the TGI in test [7], in test [8], in test [9] and in test [10] was greater than 100 µM throughout.
Consider `CC(C)(C)c1cc(C2COC(=O)COCC(=O)OCCOCCOCCO2)cc(C(C)(C)C)c1O` (stereo not given), for which the TGI in test [1] is greater than 100 µM; in test [2], 90.3 µM; in [3] it was 43.3 µM; in test [4] it was greater than 100 µM; in test [5] it was greater than 100 µM; in [6], 98.5 µM. Further, the TGI in test [7], in test [8], in [9] and in test [10] was greater than 100 µM throughout.
For the compound `CC(=O)NC1=C(C)C(=O)c2c(nc3n2CC[C@H]3OC(C)=O)C1=O`, the concentration for total growth inhibition (TGI) is greater than 100 µM in test [1]; 3.52 µM in test [2]; 4.32 µM in [3]; 3.14 µM in test [4]; 28.3 µM in test [5]; 9.11 µM in test [6]. In addition, the TGI is 3.01 µM in test [7], 29.7 µM in [8], 8.41 µM in [9] and 8.13 µM in [10].

The values above are taken from PubChem BioAssay (NCI).
